Read-outs that look alike come from different tables or passages of the source.
Assays:
Assay in all cases: CLSI broth dilution MIC determination
Assay type in all cases: cell-based
[1] = system: S. pyogenes Macrolide-resistant
[2] = system: E. faecalis Vancomycin-resistant
A. baumannii IMP-4 = details: Gram-negative
S. aureus ATCC 29213 = system: S. aureus ATCC 29213
Method in brief: (§1)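 MICs measured following CLSI broth dilution methodology. The strains tested include macrolide-resistant and multidrug-resistant isolates whose resistance genotypes can be constitutive or inducible.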

S. pneumoniae ATCC 49619 = system: S. pneumoniae ATCC 49619
Method in brief: as §1

E. coli TEM-1 = details: E. coli TEM-1; Gram-negative
Method in brief: as §1

E. coli ATCC 25922 = system: E. coli ATCC 25922
Method in brief: as §1

E. coli NDM-1 = details: Gram-negative
Method in brief: as §1

S. aureus USA600, GISA = system: S. aureus USA600, GISA
Method in brief: as §1

E. coli CTX-M-14 = details: Gram-negative
Method in brief: as §1

S. aureus MRSA: USA100 = system: S. aureus MRSA: USA100
Method in brief: as §1

H. influenzae ATCC49247 = details: Gram-negative
Method in brief: as §1

[3] = system: S. pneumoniae mef A genotype (second strain so labelled)
Method in brief: as §1

S. aureus erm A genotype = system: S. aureus erm A genotype
Method in brief: as §1

K. pneumoniae TEM-10 = details: Gram-negative
[4] = system: S. pneumoniae erm B + mef A genotype; details: S. pneumoniae erm B + mef A genotype; Gram-positive
Method in brief: as §1

S. aureus MRSA: USA300 = system: S. aureus MRSA: USA300
Method in brief: as §1

S. pyogenes ATCC 19615 = system: S. pyogenes ATCC 19615
K. pneumoniae ATCC 10031 = system: K. pneumoniae ATCC 10031
P. aeruginosa ATCC 27853 = system: P. aeruginosa ATCC 27853
[5] = system: H. influenzae Erythro >4, Azithro 1; details: H. influenzae Erythro >4, Azithro 1; Gram-negative
Excerpt: MIC data was collected for the novel macrolides that this platform has produced against over 21 unique strains of B. subtilis, E. coli, S. aureus, S. pneumoniae, and H. influenzae, including several multidrug-resistant strains, with a special focus on macrolide resistant mechanisms (vide supra). […] CLSI standard procedures for broth dilution MIC determination were used. […] These genotypes can be constitutive or inducible.

[6] = system: A. baumannii chromosomal class C; details: Gram-negative
[7] = system: A. baumannii imipenem-resistant; details: Gram-negative
K. pneumoniae SHV-12 = details: Gram-negative
[8] = system: P. aeruginosa HPA101-1477; details: Gram-negative
E. faecalis ATCC 29212 = system: E. faecalis ATCC 29212
K. pneumoniae KPC-2 = details: Gram-negative
A. baumannii ATCC 19606 = system: A. baumannii ATCC 19606
[9] = system: K. pneumoniae MP-546 Clinical-MDR; details: Klebsiella pneumoniae, read-out: MIC
[10] = system: A. baumannii MP-576 Clinical-MDR; details: Acinetobacter baumannii, read-out: MIC
E. coli MP-541 clinical = details: Escherichia coli, MP541CLINICAL, read-out: MIC
Method in brief: as §1

[11] = system: E. coli MP-9 ATCC25922:tolC; details: Escherichia coli, ATCC25922
Method in brief: as §1

[12] = system: S. aureus MP-17 ATCCBAA-977 (BAA 977 iErm); details: Staphylococcus aureus; S. aureus MP-17, ATCCBAA-977, iErm; read-out: MIC
Method in brief: as §1

[13] = system: S. aureus (MRSA) MP-513 ST-228 cErm (Clinical-cErm); details: Staphylococcus aureus, read-out: MIC
Method in brief: as §1

[14] = system: S. pneumoniae mef A genotype (first strain so labelled); details: Streptococcus pneumoniae, first strain (MP-626 UNT-038)
Method in brief: as §1

[15] = system: E. coli MP-532 clinical-cErmB; details: Escherichia coli
Method in brief: as §1

P. aeruginosa MP-7 PAO1 = details: Pseudomonas aeruginosa, read-out: MIC
[16] = system: K. pneumoniae MP-548 clinical; details: Klebsiella pneumoniae, MP548CLINICAL, read-out: MIC
[17] = system: P. aeruginosa MP-8 PAO1:mex (mex-oprM-deletion); details: Pseudomonas aeruginosa, PAO1
[18] = system: A. baumannii MP-577 Clinical-AZT low; details: Acinetobacter baumannii, read-out: MIC
[19] = S. pyogenes Macrolide-resistant, Gram-positive
[20] = E. faecalis Vancomycin-resistant, Gram-positive
[21] = S. aureus ATCC 29213, Gram-positive
[22] = S. pneumoniae ATCC 49619, Gram-positive
[23] = E. coli ATCC 25922, Gram-negative
[24] = S. aureus USA600, GISA, Gram-positive
[25] = S. aureus MRSA: USA100, Gram-positive
[26] = S. aureus erm A genotype, Gram-positive
[27] = S. aureus MRSA: USA300, Gram-positive
[28] = S. pyogenes ATCC 19615, Gram-positive
[29] = K. pneumoniae ATCC 10031, Gram-negative
[30] = P. aeruginosa ATCC 27853, Gram-negative
[31] = E. faecalis ATCC 29212, Gram-positive
[32] = A. baumannii ATCC 19606, Gram-negative

Measured: MIC

CC[C@H]1OC(=O)[C@H](C)C(=O)[C@H](C)[C@@H](O[C@@H]2OC(C)CC(N(C)C)C2O)[C@](C)(OC)C[C@@H](C)C(=O)[C@H](C)[C@H]2N(CC3CC3Cn3cc(-c4cccc(N)c4)nn3)C(=O)O[C@]12C (some centres unmarked) [FSM-100429]
> 32 µg/mL: [2]; [20] | A. baumannii IMP-4 | E. coli TEM-1 | E. coli ATCC 25922; [23] | E. coli NDM-1 | S. aureus USA600, GISA; [24] | E. coli CTX-M-14 | S. aureus MRSA: USA100; [25] | H. influenzae ATCC49247 | S. aureus erm A genotype; [26] | K. pneumoniae TEM-10 | [4] | S. aureus MRSA: USA300; [27] | P. aeruginosa ATCC 27853; [30] | [5] | K. pneumoniae SHV-12 | [8] | K. pneumoniae KPC-2 | A. baumannii ATCC 19606; [32]
0.0625 µg/mL: [3]; Gram-positive
32 µg/mL: K. pneumoniae ATCC 10031; [29] | [6] | [7]
0.125 µg/mL: S. aureus ATCC 29213; [21]
< 0.0312 µg/mL: [1]; [19] | S. pneumoniae ATCC 49619; [22] | S. pyogenes ATCC 19615; [28] | E. faecalis ATCC 29212; [31]

CC[C@H]1OC(=O)[C@@](C)(F)C(=O)[C@H](C)[C@@H](O[C@@H]2OC(C)CC(N(C)C)C2O)[C@](C)(OC)C[C@@H](C)C(=O)[C@H](C)[C@H]2N(C/C=C\Cn3cc(-c4cccc(N)c4)nn3)C(=O)O[C@]12C (some centres unmarked) [FSM-100431]
32 µg/mL: K. pneumoniae ATCC 10031; [29]
> 32 µg/mL: [2]; [20] | A. baumannii IMP-4 | E. coli TEM-1 | E. coli ATCC 25922; [23] | E. coli NDM-1 | S. aureus USA600, GISA; [24] | E. coli CTX-M-14 | S. aureus MRSA: USA100; [25] | H. influenzae ATCC49247 | S. aureus erm A genotype; [26] | K. pneumoniae TEM-10 | S. aureus MRSA: USA300; [27] | P. aeruginosa ATCC 27853; [30] | [5] | K. pneumoniae SHV-12 | [8] | K. pneumoniae KPC-2
8 µg/mL: [4] | [6]
0.125 µg/mL: S. aureus ATCC 29213; [21]
< 0.0312 µg/mL: [1]; [19] | S. pneumoniae ATCC 49619; [22] | [3]; Gram-positive | S. pyogenes ATCC 19615; [28] | E. faecalis ATCC 29212; [31]
16 µg/mL: [7] | A. baumannii ATCC 19606; [32]

CC[C@H]1OC(=O)[C@H](C)C(=O)[C@H](C)[C@@H](O[C@@H]2OC(C)CC(N(C)C)C2O)[C@](C)(OC)C[C@@H](C)C(=O)[C@H](C)[C@H]2N(CC#CCn3cc(-c4cccc(N)n4)nn3)C(=O)O[C@]12C (some centres unmarked) [FSM-100551]
< 0.03 µg/mL: S. pneumoniae ATCC 49619; Streptococcus pneumoniae, ATCC49619, S. pneumoniae ATCC 49619 (MP-21), read-out: MIC | [14] | [3]; Streptococcus pneumoniae, second strain (MP-627 UNT-039), read-out: MIC | S. pyogenes ATCC 19615; Streptococcus pyogenes, ATCC19615, S. pyogenes ATCC 19615 (MP-19), read-out: MIC | E. faecalis ATCC 29212; Enterococcus faecalis, ATCC29212, E. faecalis ATCC 29212 (MP-24), read-out: MIC
0.06 µg/mL: [1]; Streptococcus pyogenes, S. pyogenes Macrolide-resistant (MP-625 UNT-014), read-out: MIC | [12] | S. aureus ATCC 29213; Staphylococcus aureus, ATCC29213, S. aureus ATCC 29213 (MP-12), read-out: MIC
64 µg/mL: S. aureus USA600, GISA; Staphylococcus aureus, S. aureus USA600, GISA (MP-619 UNT-120), read-out: MIC
16 µg/mL: E. coli MP-541 clinical | P. aeruginosa ATCC 27853; Pseudomonas aeruginosa, ATCC27853, P. aeruginosa ATCC 27853 (MP-3), read-out: MIC | [18]
2 µg/mL: [11]
> 64 µg/mL: [9] | [10] | [13] | [15] | S. aureus MRSA: USA100; Staphylococcus aureus, S. aureus MRSA: USA100 (MP-618 UNT-096), read-out: MIC | S. aureus erm A genotype; Staphylococcus aureus, S. aureus erm A genotype (MP-620 UNT-146), read-out: MIC
0.125 µg/mL: S. aureus MRSA: USA300; Staphylococcus aureus, S. aureus MRSA: USA300 (MP-549, msr(a)), read-out: MIC
8 µg/mL: E. coli ATCC 25922; Escherichia coli, ATCC25922, E. coli ATCC 25922 (MP-4), read-out: MIC | K. pneumoniae ATCC 10031; Klebsiella pneumoniae, ATCC10031, K. pneumoniae ATCC 10031 (MP-14), read-out: MIC
32 µg/mL: P. aeruginosa MP-7 PAO1 | [16]
4 µg/mL: [2]; Enterococcus faecalis, E. faecalis Vancomycin-resistant (UNT-039), read-out: MIC | [17] | A. baumannii ATCC 19606; Acinetobacter baumannii, ATCC19606, A. baumannii ATCC 19606 (MP-15), read-out: MIC
